Experimental findings from PMC3191323 (Journal of medicinal chemistry, 2011) are described below.

A word on the IC50: it is the concentration at which inhibition is half-maximal.

The test system of series [1] is HepG2 human hepatocellular liver carcinoma cells. The series is described as follows: Cytotoxicity in mammalian cells, lactate dehydrogenase assay. Type of series: cell-based. The note with it: HepG2 vs P. falciparum.
A further series relates to P. falciparum (3D7). The series is described as follows: Viable cell count. The note with it: 2xIC50, 72 h. Type of series: cell-based, Plasmodium falciparum.
A further series deals with P. falciparum. The series is described as follows: Flow cytometric analysis of parasite DNA replication and nuclear division. Type of series: cell-based, Plasmodium falciparum. The following applies: 2xIC50, flow cytometry. A general note: A flow cytometer gives signals particle by particle.
Another series concerns P. falciparum strain 3D7. Put plainly: Malaria SYBR Green I-based fluorescence assay. Type of series: cell-based, Plasmodium falciparum.
Another series has as its system P. falciparum strain W2. The series is described as follows: Malaria SYBR Green I-based fluorescence assay. The following applies: Plasmodium falciparum, W2, 96 h, read-out: Antimalarial activity against P. falciparum IC50, W2. It is filed as cell-based.

On to `Cl.Cl.S=C(NCCCNCCCCCCNCCCNC(=S)NCc1ccccc1)NCc1ccccc1` [Compound 29, 1,14-Bis-{3-[1-(benzyl)thioureado]}-4,11-diazatetradecane Hydrochloride], for which the “Selectivity towards the parasite compared to HepG2” value (“Selectivity towards the parasite” below) in series [1] was more than 500 fold. Besides, in the series with P. falciparum (3D7), the “Cytotoxic response: decrease in viable cell numbers (% parasitemia)” value (“Cytotoxic response: decrease … (% parasitemia)” below) was “significant cytotoxic response”.

As to `Cl.Cl.O=C(NCCCNCCCCCCCNCCCNC(=O)NCC(c1ccccc1)c1ccccc1)NCC(c1ccccc1)c1ccccc1` [Compound 39, 1,15-Bis-{3-[1-(2′,2′-diphenylethyl)ureado]}-4,12-diazapentadecane Hydrochloride], the “Selectivity towards the parasite” value in series [1] is on record as more than 500 fold. For the same compound, in the series with P. falciparum (3D7), the “Cytotoxic response: decrease … (% parasitemia)” value is “significant cytotoxic response”. Besides, the “Effect on DNA replication and nuclear division” value (from here on “Effect”) in the series with P. falciparum was “greatest inhibitory affect on DNA replication and nuclear division”.

`CCNC(=O)NCCCNCCCCCCNCCCNC(=O)NCC.Cl.Cl` [Compound 34, 1,14-Bis-{3-[1-(ethyl)ureado]}-4,11-diazatetradecane Hydrochloride]: the “Antimalarial activity against P. falciparum IC50, 3D7 (values in μM)” value with P. falciparum strain 3D7 (drug sensitive strain 3D7, footnote: IC50 values in μM) is given as “not active in the μM range”.

`Cl.Cl.O=C(NCCCNCCCCCCCNCCCNC(=O)NC(c1ccccc1)c1ccccc1)NC(c1ccccc1)c1ccccc1` [Compound 38, 1,15-Bis-{3-[1-(1′,1′-diphenylmethyl)ureado]}-4,12-diazapentadecane Hydrochloride]: the “Selectivity towards the parasite” value in series [1] is more than 500 fold. In addition, in the series with P. falciparum (3D7), the “Cytotoxic response: decrease … (% parasitemia)” value is given as “significant cytotoxic response”. The “Effect” value with P. falciparum is “greatest inhibitory affect on DNA replication and nuclear division”.

`CCN(CC)CCCC(C)Nc1ccnc2cc(Cl)ccc12` (centres unmarked) [CQ, chloroquine, reference compound]: the IC50 with P. falciparum strain W2 was found to be 70 ± 1 nM; in the series with P. falciparum strain 3D7 (Plasmodium falciparum, 3D7, 96 h, read-out: Antimalarial activity against P. falciparum IC50, 3D7), 9 ± 0.04 nM.

On to `Cl.Cl.O=C(NCCCNCCCCCCNCCCNC(=O)Nc1ccccc1)Nc1ccccc1` [Compound 30, 1,14-Bis-{3-[1-(phenyl)ureado]}-4,11-diazatetradecane Hydrochloride], for which, in the series with P. falciparum (3D7), the “Cytotoxic response: decrease … (% parasitemia)” value is recorded as “significant cytotoxic response”.

`Cl.Cl.S=C(NCCCNCCCCCCCNCCCNC(=S)NCCC(c1ccccc1)c1ccccc1)NCCC(c1ccccc1)c1ccccc1` [Compound 13]: the “Cytotoxic response: decrease … (% parasitemia)” value in the series on P. falciparum (3D7) is recorded as “significant cytotoxic response”.

Regarding `Cl.Cl.O=C(NCCCNCCCCCCCNCCCNC(=O)NCCC(c1ccccc1)c1ccccc1)NCCC(c1ccccc1)c1ccccc1` [Compound 9], in the series with P. falciparum (3D7), the “Cytotoxic response: decrease … (% parasitemia)” value is “significant cytotoxic response”.

`Cl.Cl.S=C(NCCCNCCCCNCCCNC(=S)NCC(c1ccccc1)c1ccccc1)NCC(c1ccccc1)c1ccccc1` [Compound 15]: the “Cytotoxic response: decrease … (% parasitemia)” value in the series with P. falciparum (3D7) was “significant cytotoxic response”.

As to `Cl.Cl.S=C(NCCCNCCCCCCCNCCCNC(=S)NCC(c1ccccc1)c1ccccc1)NCC(c1ccccc1)c1ccccc1` [Compound 16], the “Cytotoxic response: decrease … (% parasitemia)” value with P. falciparum (3D7) is given as “significant cytotoxic response”. For the same compound, in the series with P. falciparum, the “Effect” value is “greatest inhibitory affect on DNA replication and nuclear division”.

As for `Cl.Cl.S=C(NCCCNCCCCNCCCNC(=S)NCc1ccccc1)NCc1ccccc1` [Compound 20], the “Cytotoxic response: decrease … (% parasitemia)” value with P. falciparum (3D7) is “not able to decrease viable cell numbers”. Moreover, the “Effect” value in the series with P. falciparum is reported as “not able to prevent DNA replication”.

Turning to `Cl.Cl.S=C(NCCCNCCCCCCNCCCNC(=S)NC(c1ccccc1)c1ccccc1)NC(c1ccccc1)c1ccccc1` [Compound 25, 1,14-Bis-{3-[1-(1′,1′-diphenylmethyl)thioureado]}-4,11-diazatetradecane Hydrochloride], the “Cytotoxic response: decrease … (% parasitemia)” value with P. falciparum (3D7) is listed as “significant cytotoxic response”.
